Results from US6124477A, “Anti-first-pass effect compounds” (priority 1997, dated 2000).
Where two headings read alike, the source gives them in different places.

Assays:
Human Cytochrome P450 [1] = experiment: Determination of first-pass effectiveness of furocoumarins (human cytochrome P450-mediated biotransformation, Protocol C / C'); type: in vitro ADME
Experimental: The process of preparing incubation mixtures begins by mixing 10 uL of ethanol or an ethanolic solution containing an inhibitor with 100 uL of 100 mg/mL bovine serum albumin (Sigma) dissolved in reaction buffer at room temperature. Reaction buffer is composed of 0.10 M sodium phosphate, 1.0 mM ethylenediaminetetraacetic acid, and 5.0 mM magnesium chloride, pH 7.4 (all reagents: Fisher Scientific). Inhibitory chemicals used were ketoconazole (Research Diagnostics, Inc.), miconazole, bergapten, xanthotoxin (previous three from Sigma), bergamotin, imperatorin, isopimpinellin, psoralen, angelicin (previous five from Indofine Chemical Company, Inc.), and fractions or precipitates resulting from Protocols A, A', B, B', or B" above. When possible, final inhibitor concentrations were expressed in molarity by calculation from the weighed material or by interpolation from HPLC calibration curves prepared with reference materials; otherwise, concentrations are expressed as weight per volume. Reaction tubes are placed on ice in preparation for the manipulations that follow. Sufficient reaction buffer is added so that the final volume of each tube will be 500 uL, 5 uL of a 100-fold concentrate for generating reduced nicotinamide adenine dinucleotide phosphate is added (such that completed reaction mixture contains 1.0 mM nicotinamide adenine dinucleotide phosphate, 1 U/mL glucose-6-phosphate dehydrogenase, and 10 mM glucose-6-phosphate; all from Sigma), and then human hepatic S9 (Anatomic Gift Foundation) is thawed and added in sufficient amounts to cause readily detectable amounts of metabolites to be formed in control reactions (amount necessary varies among individuals, but 10 uL is typical).
The samples prepared above are readied for HPLC assessment using the protocol that follows. Each tube is vortex mixed and centrifuged for 10 min at setting 35, the resulting supernatant is transferred to a clean tube, and the liquid is evaporated using a Speed Vac apparatus. The residue in each tube is first dissolved in 40 uL 1:1 acetonitrile:water, 2.5 mL of acetonitrile is added, and the centrifuge-transfer-evaporate step just described is repeated.
Linear gradients are used for elution and are formed by mixing mobile phase A composed of water with mobile phase B composed of 0.025% (v/v) formic acid in acetonitrile (instrument: Hewlett Packard). The elution time, in minutes, the percentage of mobile phase B present in the mixed mobile phase, and the flow rate (mL/min) are as follows: 0, 10, 0.10; 2, 10, 0.10; 3.5, 10, 0.20; 4, 10, 0.25; 5, 10, 0.25; 30, 55, 0.25; 32, 98, 0.25; 33, 98, 0.40; 39.8, 98, 0.40; 40, 98, 0.25; 45, 10, 0.25; 45.25, 10, 0.20; 50, 10, 0.20; 50.25, 10, 0.10. The chromatographic column has dimensions of 150 mm length×2.1 mm internal diameter, is packed with a proprietary material (Prism, Keystone Scientific, Inc.), is protected with a 2 mm internal diameter column containing the same material and with a PTFE filter, and is maintained at 35+/-0.2° C. The dry sample residue is mixed with 60 uL of 1:1 acetonitrile:water followed by 40 uL water just prior to each 50.25 min run cycle. The column eluate from each 10 uL injection is monitored for fluorescence with excitation at 228 nm, emission at 291 nm, and bandpass filtration at 280 nm.
The process of preparing incubation mixtures begins by mixing 10 uL of ethanol (control reactions) or an ethanolic solution containing an inhibitor with 100 uL of 100 mg/mL bovine serum albumin (Sigma) dissolved in reaction buffer at room temperature. Reaction buffer is composed of 0.10 M sodium phosphate, 1.0 mM ethylenediaminetetraacetic acid, and 5.0 mM magnesium chloride, pH 7.4 (all reagents: Fisher Scientific). […] Final inhibitor concentrations were expressed in molarity by calculation from the weighed material or by use of Beer's law. Reaction tubes are placed on ice in preparation for the manipulations that follow. […]

Human Cytochrome P450 [2] = experiment: Protocol C': generation of saquinavir metabolites by human hepatic S9 in the presence of inhibitor; type: in vitro ADME
Experimental: The process of preparing incubation mixtures begins by mixing 10 uL of ethanol (control reactions) or an ethanolic solution containing an inhibitor with 100 uL of 100 mg/mL bovine serum albumin (Sigma) dissolved in reaction buffer at room temperature. Reaction buffer is composed of 0.10 M sodium phosphate, 1.0 mM ethylenediaminetetraacetic acid, and 5.0 mM magnesium chloride, pH 7.4 (all reagents: Fisher Scientific). […] Final inhibitor concentrations were expressed in molarity by calculation from the weighed material or by use of Beer's law. Reaction tubes are placed on ice in preparation for the manipulations that follow. Sufficient reaction buffer is added so that the final volume of each tube will be 500 uL, 5 uL of a 100-fold concentrate for generating reduced nicotinamide adenine dinucleotide phosphate is added (such that completed reaction mixture contains 1.0 mM nicotinamide adenine dinucleotide phosphate, 1 U/mL glucose-6-phosphate dehydrogenase, and 10 mM glucose-6-phosphate; all from Sigma), and then human hepatic S9 (Anatomic Gift Foundation) is thawed and added in sufficient amounts to cause readily detectable amounts of metabolites to be formed in control reactions (amount necessary varies among individuals, but 10 uL is typical). […]
The samples prepared above are readied for HPLC assessment using the protocol that follows. […]

[3] = in vivo; cited from earlier work
first-pass effect [4] = settings: in vivo; cited from earlier work
first-pass effect [5] = settings: inhibitors commonly given to humans; cited from earlier work
cytochrome P450 = settings: given to humans in large doses; cited from earlier work

**Q.** Which first-pass effect effectiveness (Human Cytochrome P450 [1]) does the source give for C/C(=C\COc1c2ccoc2cc2oc(=O)ccc12)CCC(O)C(C)(C)O (stereo not drawn) [6', 7'-dihydroxybergamottin] here?
**A.** Its first-pass effect effectiveness is “ineffective”.

**Q.** For O=c1ccc2ccc3occc3c2o1 [angelicin], which first-pass effect effectiveness (Human Cytochrome P450 [1]; determined herein) is on record?
**A.** The first-pass effect effectiveness was “ineffective”.

**Q.** What does the source list for CC(C)=CCC/C(C)=C/COc1c2ccoc2cc2oc(=O)ccc12 [bergamottin]?
**A.** first-pass inhibition (saquinavir metabolite generation) (Human Cytochrome P450 [2]): essentially ineffective first-pass inhibitors; first-pass effect effectiveness (Human Cytochrome P450 [1]): ineffective

**Q.** For COc1c2ccoc2cc2oc(=O)ccc12 [bergapten, 5-methoxypsoralen], which phototoxicity [3] is on record?
**A.** Its phototoxicity is “phototoxic”.

**Q.** With CC[C@H]1OC(=O)[C@H](C)[C@@H](O[C@H]2C[C@@](C)(OC)[C@@H](O)[C@H](C)O2)[C@H](C)[C@@H](O[C@@H]2O[C@H](C)C[C@H](N(C)C)[C@H]2O)[C@](C)(O)C[C@@H](C)C(=O)[C@H](C)[C@@H](O)[C@]1(C)O [erythromycin] as the molecule, how does the “inhibition of the first-pass effect” value (first-pass effect [4]) read?
**A.** Its value is “inhibitors of the first-pass effect”.

**Q.** For OC(Cn1cncn1)(Cn1cncn1)c1ccc(F)cc1F [fluconazole], which “inhibition of the first-pass effect” value (first-pass effect [4]) is on record?
**A.** Its value is “inhibitors of the first-pass effect”.

**Q.** Which “first-pass inhibition (saquinavir metabolite generation)” value (Human Cytochrome P450 [2]; FIG. 1, Protocol C', saquinavir, human hepatic S9) does the source give for CC(C)=CCOc1c2occc2cc2ccc(=O)oc12 [imperatorin] here?
**A.** The value was “essentially ineffective first-pass inhibitors”.

**Q.** What about the first-pass effect effectiveness (Human Cytochrome P450 [1]; determined herein) of the same molecule?
**A.** The first-pass effect effectiveness was “ineffective”.

**Q.** With COc1c2ccoc2c(OC)c2oc(=O)ccc12 [isopimpinellin] as the molecule, how does the first-pass effect effectiveness (Human Cytochrome P450 [1]; determined herein) read?
**A.** Its first-pass effect effectiveness is “ineffective”.

**Q.** With CCC(C)n1ncn(-c2ccc(N3CCN(c4ccc(OCC5COC(Cn6cncn6)(c6ccc(Cl)cc6Cl)O5)cc4)CC3)cc2)c1=O (stereo not drawn) [itraconazole] as the molecule, how does the “inhibition of the first-pass effect” value (first-pass effect [4]) read?
**A.** Its value is “inhibitors of the first-pass effect”.

**Q.** With CC(=O)N1CCN(c2ccc(OCC3COC(Cn4ccnc4)(c4ccc(Cl)cc4Cl)O3)cc2)CC1 (stereo not drawn) [ketoconazole] as the molecule, how does the “inhibition of the first-pass effect” value (first-pass effect [4]) read?
**A.** The value was “inhibitors of the first-pass effect”.

**Q.** With C/C(=C\COc1ccc2ccc(=O)oc2c1)CCC(O)C(C)(C)O (stereo not drawn) [marmin] as the molecule, how does the first-pass effect effectiveness (Human Cytochrome P450 [1]) read?
**A.** Its first-pass effect effectiveness is “ineffective”.

**Q.** For Clc1ccc(COC(Cn2ccnc2)c2ccc(Cl)cc2Cl)c(Cl)c1 (stereo not drawn) [miconazole], which “inhibition of the first-pass effect” value (first-pass effect [4]) is on record?
**A.** The value was “inhibitors of the first-pass effect”.

**Q.** With Cc1ncc2n1-c1ccc(Cl)cc1C(c1ccccc1F)=NC2 [midazolam] as the molecule, how does the “bioavailability in presence of inhibitors” value (first-pass effect [5]) read?
**A.** The value was “bioavailability is increased by inhibitors commonly given to humans”.

**Q.** With O=c1ccc2cc3ccoc3cc2o1 [psoralen] as the molecule, how does the “inhibition of cytochrome P450” value (cytochrome P450) read?
**A.** The value was “do inhibit cytochrome P450”.

**Q.** What about the first-pass effect effectiveness (Human Cytochrome P450 [1]; determined herein) of the same molecule?
**A.** Its first-pass effect effectiveness is “ineffective”.

**Q.** What about the phototoxicity [3] of the same molecule?
**A.** The phototoxicity was “phototoxic”.

**Q.** For Cc1nnc2n1-c1ccc(Cl)cc1C(c1ccccc1Cl)=NC2 [triazolam], which “bioavailability in presence of inhibitors” value (first-pass effect [5]) is on record?
**A.** The value was “bioavailability is increased by inhibitors commonly given to humans”.

**Q.** With CO[C@H]1C[C@H](O[C@H]2[C@H](C)[C@@H](O[C@@H]3O[C@H](C)C[C@H](N(C)C)[C@H]3OC(C)=O)[C@@H](C)C[C@@]3(CO3)C(=O)[C@H](C)[C@@H](OC(C)=O)[C@@H](C)[C@@H](C)OC(=O)[C@@H]2C)O[C@@H](C)[C@@H]1OC(C)=O [troleandomycin] as the molecule, how does the “inhibition of the first-pass effect” value (first-pass effect [4]) read?
**A.** Its value is “inhibitors of the first-pass effect”.

**Q.** Which phototoxicity [3] does the source give for COc1c2occc2cc2ccc(=O)oc12 [xanthotoxin, 8-methoxypsoralen] here?
**A.** The phototoxicity was “phototoxic”.
